From the PolyMetriX glass transition set come the findings set out here.

`*C(=O)Nc1ccc(Cc2ccc(NC(=O)c3ccc4c(c3)C(=O)N(c3ccc(/N=N/c5ccc(C)cc5)c(N5C(=O)c6ccc(*)cc6C5=O)c3)C4=O)cc2)cc1` (repeat unit): the glass transition temperature is 268.00 °C.

Take `*C(=O)c1ccc(Oc2ccc(-c3ccc(Oc4ccc(C(=O)c5ccc6c(c5)C(=O)N(c5ccc(N7C(=O)c8ccc(*)cc8C7=O)cc5)C6=O)cc4)cc3)cc2)cc1` (repeat unit): the glass transition temperature came out at 229.00 °C.

Take `*C(=O)c1ccc(Oc2ccc(S(=O)(=O)c3ccc(Oc4ccc(C(=O)c5ccc6c(c5)C(=O)N(c5ccc(Cc7ccc(N8C(=O)c9ccc(*)cc9C8=O)cc7)cc5)C6=O)cc4)cc3)cc2)cc1` (repeat unit): the glass transition temperature is 245.00 °C.

`*C(=O)c1ccc2c(c1)C(=O)N(c1cc(OCCCCCCCC)cc(N3C(=O)c4ccc(*)cc4C3=O)c1)C2=O` (repeat unit) yielded a glass transition temperature of 195.00 °C.

For the molecule `*C(=O)c1ccc2c(c1)C(=O)N(c1cc(OCCCCCCCCCCCC)cc(N3C(=O)c4ccc(*)cc4C3=O)c1)C2=O` (repeat unit), the glass transition temperature was 182.00 °C.

Molecule `*C(=O)c1ccc2c(c1)C(=O)N(c1ccc(CP(=O)(OCC)OCC)c(N3C(=O)c4ccc(*)cc4C3=O)c1)C2=O` (repeat unit) came in with a glass transition temperature of 218.00 °C.

In turn, `*C(=O)c1ccc2c(c1)C(=O)N(c1ccc(Cl)c(N3C(=O)c4ccc(*)cc4C3=O)c1)C2=O` (repeat unit) showed a glass transition temperature of 305.00 °C.

`*C(=O)c1ccc2c(c1)C(=O)N(c1ccc(N3C(=O)c4ccc(*)cc4C3=O)c(S(=O)(=O)[O][Na])c1)C2=O` (repeat unit): the glass transition temperature amounted to 214.00 °C.

Molecule `*C(=O)c1ccc2c(c1)C(=O)N(c1ccc(OCCOCCOCCOc3ccc(N4C(=O)c5ccc(*)cc5C4=O)cc3)cc1)C2=O` (repeat unit) came in with a glass transition temperature of 200.00 °C.

`*C(=O)c1ccc2c(c1)C(=O)N(c1ccc(OCCOCCOc3ccc(N4C(=O)c5ccc(*)cc5C4=O)cc3)cc1)C2=O` (repeat unit) gave a glass transition temperature of 235.00 °C.

Take `*C(=O)c1ccc2c(c1)C(=O)N(c1ccc(Oc3c(C)cc(C(c4cc(C)c(Oc5ccc(N6C(=O)c7ccc(*)cc7C6=O)cc5)c(C)c4)c4cccc5ccccc45)cc3C)cc1)C2=O` (repeat unit): the glass transition temperature turned out to be 272.00 °C.

Molecule `*C(=O)c1ccc2c(c1)C(=O)N(c1ccc(Oc3cc4ccccc4cc3Oc3ccc(N4C(=O)c5ccc(*)cc5C4=O)cc3)cc1)C2=O` (repeat unit) displayed a glass transition temperature of 246.00 °C.

Turning to `*C(=O)c1ccc2c(c1)C(=O)N(c1ccc(Oc3ccc(C(=O)c4cccc(C(=O)c5ccc(Oc6ccc(N7C(=O)c8ccc(*)cc8C7=O)cc6)cc5)n4)cc3)cc1)C2=O` (repeat unit), the glass transition temperature was found to be 314.50 °C.

Turning to `*C(=O)c1ccc2c(c1)C(=O)N(c1cccc(C(=O)c3ccc(Oc4ccc(N5C(=O)c6ccc(*)cc6C5=O)cc4C(F)(F)F)cc3)c1)C2=O` (repeat unit), the glass transition temperature turned out to be 242.00 °C.

The molecule `*Oc1ccc(S(=O)(=O)c2ccc(Oc3c(C)cc(C(C)(C)c4cc(C)c(*)c(C)c4)cc3C)cc2)cc1` (repeat unit) gave a glass transition temperature of 231.30 °C.

In the case of `*Oc1ccc(S(=O)(=O)c2ccc(Oc3c(C)cc(C(c4cc(C)c(*)c(C)c4)(C(F)(F)F)C(F)(F)F)cc3C)cc2C(O)(C(F)(F)F)C(F)(F)F)c(C(O)(C(F)(F)F)C(F)(F)F)c1` (repeat unit), the glass transition temperature came out at 196.00 °C.

In the case of `*Oc1ccc(S(=O)(=O)c2ccc(Oc3c(C)cc(C(c4cc(C)c(*)c(C)c4)(C(F)(F)F)C(F)(F)F)cc3C)cc2[Si](C)(C)C)c([Si](C)(C)C)c1` (repeat unit), the glass transition temperature was determined as 197.00 °C.

`*Oc1ccc(Sc2ccc(Oc3ccc(-c4ccc(-c5ccc(-c6ccc(*)c(C(F)(F)F)c6)cc5)cc4)cc3C(F)(F)F)cc2)cc1` (repeat unit) gave a glass transition temperature of 176.50 °C.

`*c1c(C)cc(Cc2cc(C)c(N3C(=O)c4cccc(Oc5c(C)cc(-c6cc(C)c(Oc7cccc8c7C(=O)N(*)C8=O)c(C)c6)cc5C)c4C3=O)c(C)c2)cc1C` (repeat unit) yielded a glass transition temperature of 289.00 °C.

`*c1cc(*)cc(-c2nc3ccccc3o2)c1` (repeat unit) returned a glass transition temperature of 250.00 °C.

Consider `*c1cc(CC(=O)OCCCCCCOc2ccc(/N=N/c3ccc(C#N)cc3)cc2)c(*)s1` (repeat unit), for which the glass transition temperature was determined as 64.00 °C.

Molecule `*c1cc(CCCCCCOC(=O)COC)c(*)s1` (repeat unit) displayed a glass transition temperature of 37.00 °C.

Regarding `*c1cc(CCCCCCOC(=O)Cc2ccccc2)c(*)s1` (repeat unit), the glass transition temperature turned out to be 45.00 °C.

For `*c1cc(CCCCCCO[Si](C)(C)C)c(*)s1` (repeat unit), the glass transition temperature worked out at 10.00 °C.

`*c1cc(SCCCCCC)c(*)s1` (repeat unit): the glass transition temperature was found to be 32.00 °C.

Molecule `*c1cc(SCCCCCCCCCCCC)c(*)s1` (repeat unit) displayed a glass transition temperature of 33.00 °C.

For the molecule `*c1ccc(-c2cc(-c3ccc(OCC(CC)CCCC)cc3)cc(-c3ccc(-c4ccc5c(c4)C(CCCCCC)(CCCCCC)c4cc(*)ccc4-5)cc3)c2-c2ccc(OCC(CC)CCCC)cc2)cc1` (repeat unit), the glass transition temperature was 110.00 °C.

For `*c1ccc(-c2cc(CCCCCCCC)c(-c3ccc(-c4ccc(-c5sc(-c6ccc([Si](CCCC)(CCCC)[Si](*)(CCCC)CCCC)s6)cc5CCCCCCCC)s4)s3)s2)s1` (repeat unit), the glass transition temperature is -10.00 °C.

Turning to `*c1ccc(-c2cc3c(ccc4ccccc43)cc2-c2ccc(N(*)c3ccc(C)cc3)cc2)cc1` (repeat unit), the glass transition temperature turned out to be 126.00 °C.

In turn, `*c1ccc(-c2ccc(-c3c(-c4ccccc4)nc4ccc(Oc5ccc6nc(-c7ccccc7)c(*)c(-c7ccccc7)c6c5)cc4c3-c3ccccc3)cc2)cc1` (repeat unit) displayed a glass transition temperature of 330.00 °C.

`*c1ccc(-c2ccc(-c3cc(-c4ccccc4)c4cc(C5(c6ccc7nc(*)cc(-c8ccccc8)c7c6)c6ccccc6-c6ccccc65)ccc4n3)cc2)cc1` (repeat unit) yielded a glass transition temperature of 380.00 °C.

In turn, `*c1ccc(-c2ccc(-c3cc(-c4ccccc4)c4cc5nc(*)cc(-c6ccccc6)c5cc4n3)cc2)cc1` (repeat unit) returned a glass transition temperature of 383.00 °C.

`*c1ccc(-c2ccc(-c3ccc(-c4cc(-c5ccccc5)c5cc(-c6ccc7nc(*)cc(-c8ccccc8)c7c6)ccc5n4)cc3)cc2)cc1` (repeat unit) registered a glass transition temperature of 360.00 °C.

In turn, `*c1ccc(-c2ccc(-c3ccc(-c4ccc(-c5cc(-c6ccccc6)c6cc(-c7ccc8nc(*)cc(-c9ccccc9)c8c7)ccc6n5)cc4)cc3)cc2)cc1` (repeat unit) displayed a glass transition temperature of 355.00 °C.

`*c1ccc(-c2ccc(-c3ccc(-c4ccc(-c5ccc6c(c5)C(=O)N(c5cccc(N7C(=O)c8ccc(*)cc8C7=O)c5)C6=O)cc4)cc3)cc2)cc1` (repeat unit) gave a glass transition temperature of 237.00 °C.

In the case of `*c1ccc(-c2ccc(-c3ccc([Si](*)(CCCC)CCCC)s3)s2)s1` (repeat unit), the glass transition temperature came out at 30.00 °C.

The molecule `*c1ccc(-c2ccc(-c3ccc([Si](C)(C)[Si](*)(C)C)s3)s2)s1` (repeat unit) showed a glass transition temperature of 45.00 °C.

In the case of `*c1ccc(-c2ccc(-c3cnc4cc(-c5ccc6nc(*)cnc6c5)ccc4n3)cc2)cc1` (repeat unit), the glass transition temperature was 345.50 °C.

Take `*c1ccc(-c2ccc(-n3c(=O)c4c(C(F)(F)F)c5c(=O)n(*)c(=O)c5c(C(F)(F)F)c4c3=O)cc2C)c(C)c1` (repeat unit): the glass transition temperature amounted to 385.00 °C.

Consider `*c1ccc(-c2ccc(-n3c(=O)c4cc5c(=O)n(*)c(=O)c5c(C(F)(F)F)c4c3=O)cc2C(F)(F)F)c(C(F)(F)F)c1` (repeat unit), for which the glass transition temperature is 373.00 °C.

`*c1ccc(C(c2ccc(-c3cc(-c4ccccc4)c4cc(Oc5ccc6nc(*)cc(-c7ccccc7)c6c5)ccc4n3)cc2)(C(F)(F)F)C(F)(F)F)cc1` (repeat unit) showed a glass transition temperature of 260.00 °C.

`*c1ccc(C(c2ccc(N3C(=O)c4cc(-c5ccc(C(C)(C)C)cc5)c(-c5cc6c(cc5-c5ccc(C(C)(C)C)cc5)C(=O)N(*)C6=O)cc4C3=O)cc2)(C(F)(F)F)C(F)(F)F)cc1` (repeat unit) returned a glass transition temperature of 381.00 °C.

Regarding `*c1ccc(C2(c3ccc(-c4cc(-c5ccccc5)c5cc(C6(c7ccc8nc(*)cc(-c9ccccc9)c8c7)c7ccccc7-c7ccccc76)ccc5n4)cc3)c3ccccc3C(=O)c3ccccc32)cc1` (repeat unit), the glass transition temperature is 385.00 °C.

With `*c1ccc(C2(c3ccc(-c4cc(-c5ccccc5)c5cc(Oc6ccc7nc(*)cc(-c8ccccc8)c7c6)ccc5n4)cc3)c3ccccc3C(=O)c3ccccc32)cc1` (repeat unit), the glass transition temperature came out at 340.00 °C.

`*c1ccc(Oc2c(C)cc(C(c3cc(C)c(Oc4ccc(N5C(=O)c6ccc(-c7ccc8c(c7)C(=O)N(*)C8=O)cc6C5=O)cc4)c(C)c3)c3cccc4ccccc34)cc2C)cc1` (repeat unit): the glass transition temperature stood at 289.50 °C.

`*c1ccc(Oc2ccc(C(c3ccc(Oc4ccc(N5C(=O)c6ccc(Oc7c(C)cc(C(C)(C)c8cc(C)c(Oc9ccc%10c(c9)C(=O)N(*)C%10=O)c(C)c8)cc7C)cc6C5=O)cc4)cc3)(C(F)(F)F)C(F)(F)F)cc2)cc1` (repeat unit) had a glass transition temperature of 244.00 °C.

As to `*c1ccc(Oc2ccc(C3(c4ccc(Oc5ccc(N6C(=O)c7ccc(Oc8c(C)cc(C(C)(C)c9cc(C)c(Oc%10ccc%11c(c%10)C(=O)N(*)C%11=O)c(C)c9)cc8C)cc7C6=O)cc5)cc4)C4CC5CC(C4)CC3C5)cc2)cc1` (repeat unit), the glass transition temperature is 282.00 °C.

Turning to `*c1ccc2c(c1)C(=O)N(c1ccc(Oc3c(C)cc(C(c4cc(C)c(Oc5ccc(N6C(=O)c7ccc(C(*)(C(F)(F)F)C(F)(F)F)cc7C6=O)cc5)c(C)c4)c4cccc5ccccc45)cc3C)cc1)C2=O` (repeat unit), the glass transition temperature turned out to be 308.00 °C.

`*c1cccc(N2C(=O)c3cccc(Oc4c(C)cc(-c5cc(C)c(Oc6cccc7c6C(=O)N(*)C7=O)c(C)c5)cc4C)c3C2=O)c1` (repeat unit): the glass transition temperature came out at 311.00 °C.

Regarding `*c1ccccc1CCc1ccc(N2C(=O)C(=O)N(c3ccc(C)c(N4C(=O)C(=O)N(*)C4=O)c3)C2=O)cc1` (repeat unit), the glass transition temperature was found to be 255.00 °C.
